This note sets out measurements from PubChem BioAssay AID742 (SRMLSC, 2007).

The test system of test [1] is human cells, Her2 expression AlphaScreen; CTG viability. Nature of the test: inhibitors of Her2 kinase expression, dose response, cell-based, AlphaScreen, CellTiter-Glo viability (AID 742). Particulars: viability, CellTiter-Glo. On the technique in general: Alpha assays give light when donor and acceptor beads are brought close together.
Test in test [2]: as above
Particulars: human cells, Her2 expression AlphaScreen; CTG viability; at 9.62 µM (top of the series).

The source made the active and inactive calls. No rule for the calls is given here.

`CCc1ccc(-c2nc(CN3CCC(C(=O)N4CCN(c5ccccc5)CC4)CC3)c(C)o2)cc1`: in test [1], the concentration for a half-maximal effect (EC50) is > 9.62 µM. Besides, the Her2 inhibition in test [2] was -74% (inactive).
`Oc1ccc(N=Cc2ccc(-c3cccs3)s2)cc1`: the EC50 in test [1] is < 0.024 µM. The Her2 inhibition in test [2] was 37.6% (inactive).
Regarding `CC1(C)CC(=O)C2=C(C1)OC(=O)C2(NC(=O)c1cccs1)C(F)(F)F` (centres undefined), the EC50 in test [1] was > 9.62 µM. For the same molecule, the Her2 inhibition in test [2] was -18.5% (inactive).
The like results for `CCCCCn1c(CN2CCCCC2CC)nc2c1c(=O)n(C)c(=O)n2C` (centres undefined) were, in that order, > 9.62 µM and -28.1% (inactive).
For `CNCCCC12CCC(c3ccccc31)c1ccccc12` the same measures were > 9.62 µM and -11.5% (inactive).
Regarding `Cc1ccccc1OCCCC(=O)Nc1nccs1`, in test [1], the EC50 is > 9.62 µM. The Her2 inhibition in test [2] was -6.38% (inactive).
Turning to `Nc1c(S(=O)(=O)c2cccc(Cl)c2)c2nc3ccccc3nc2n1/N=C/c1ccc(O)c(O)c1`, the EC50 in test [1] is > 9.62 µM. Also, the Her2 inhibition in test [2] is 11.2% (inactive).
For `CC1(C)CC(=O)NC=C(c2ccccc2)C1` the same measures were > 9.62 µM and 0.71% (inactive).
Consider `CCc1ccc(C2CC(=O)N3CN(c4ccccc4)CSC3=C2C#N)cc1` (centres undefined), for which the concentration for a half-maximal effect (EC50) in test [1] was > 9.62 µM. Besides, the Her2 inhibition in test [2] is 21.4% (inactive).
Regarding `Cc1c(C#N)c(N)c(C(=O)c2ccccc2)n1Cc1ccccc1`, the EC50 in test [1] is > 9.62 µM. In addition, the Her2 inhibition in test [2] is -0.29% (inactive).
As to `COc1ccccc1C(CC(=O)Nc1nccs1)c1ccco1` (centres undefined), the EC50 in test [1] was > 9.62 µM. For the same molecule, the Her2 inhibition in test [2] is 3.82% (inactive).
As for `O=c1[nH]c(Nc2nc3ccccc3o2)nc2c1CCCC2`, the EC50 in test [1] was > 9.62 µM. The Her2 inhibition in test [2] is -16.5% (inactive).
With `CCCc1cc(C(=O)Cc2ccc(F)cc2)c(O)cc1O`, in test [1], the concentration for a half-maximal effect (EC50) was > 9.62 µM. Moreover, the Her2 inhibition in test [2] is -30.2% (inactive).
As to `CCOC(=O)Cc1csc(NC(=O)COc2ccc(OC)cc2)n1`, the concentration giving a half-maximal response (EC50) in test [1] is > 9.62 µM. Also, in test [2], the Her2 inhibition is -22.7% (inactive).
Consider `CCOC(=O)N1CCN(CCC(=O)c2ccc(Cl)cc2)CC1`, for which the concentration giving a half-maximal response (EC50) in test [1] is > 9.62 µM. In addition, the Her2 inhibition in test [2] is 9.27% (inactive).
In the case of `COc1ccc(Cl)c(Cn2c(NCc3ccco3)nc3c2c(=O)n(C)c(=O)n3C)c1`, in test [1], the EC50 was > 9.62 µM. Further, in test [2], the Her2 inhibition is 0.72% (inactive).
As to `N=C(N)c1c(O)n(C2CCCCC2)c(=O)n(C2CCCCC2)c1=O`, the 50% effective concentration (EC50) in test [1] was > 9.62 µM. The Her2 inhibition in test [2] was -21.5% (inactive).
With `Cc1ccc(S(=O)(=O)N2CCC(C(=O)N[C@@H](C)C(=O)NCCc3ccccc3)CC2)cc1`, the EC50 in test [1] was > 9.62 µM. Also, in test [2], the Her2 inhibition is -5.1% (inactive).
As to `C=CCOC(=O)C1=C(C)Nc2nnnn2C1c1cc(OC)ccc1OC` (centres undefined), the 50% effective concentration (EC50) in test [1] was > 9.62 µM. Further, the Her2 inhibition in test [2] is -8.6% (inactive).
In the case of `CCCC1C(c2ccccc2)C(C#N)(C#N)C2(C#N)CC1(N)NC2=O` (centres undefined), the 50% effective concentration (EC50) in test [1] is > 9.62 µM. Further, the Her2 inhibition in test [2] is -6.63% (inactive).
Consider `O=C(O)CCc1nn2cc(-c3ccccc3)nc2[nH]c1=O`, for which the concentration giving a half-maximal response (EC50) in test [1] was > 9.62 µM. Moreover, the Her2 inhibition in test [2] is -26.9% (inactive).
For the molecule `Oc1cccc2ccc(Nc3ccccn3)nc12`, the EC50 in test [1] was > 9.62 µM. For the same molecule, the Her2 inhibition in test [2] is 31.3% (inactive).
For the molecule `Cc1ccc(C)n1-c1ccc(N2CCOCC2)nc1`, the half-maximal effective concentration (EC50) in test [1] was > 9.62 µM. The Her2 inhibition in test [2] was 3.86% (inactive).
The like results for `CCCCn1c(O)c(C(C)=NCCN2CCCCC2)c(=O)[nH]c1=O` were, in that order, > 9.62 µM and -17.4% (inactive).
Consider `CC1CN=C(N(C(=O)Nc2ccccc2)c2ccc(S(=O)(=O)N3CCOCC3)cc2)S1` (centres undefined), for which, in test [1], the concentration giving a half-maximal response (EC50) was > 9.62 µM. The Her2 inhibition in test [2] was -5.35% (inactive).
The like results for `COc1ccc(/C=C/C(O)=C2/C(=O)N(C)C3(C)CC2c2ccccc2O3)cc1` (centres undefined) were, in that order, > 9.62 µM and 23.7% (inactive).
For `N#CC(C#N)=c1ccc2c(c1)NC1(CCCCC1)N=2` the same measures were > 9.62 µM and 43.8% (inactive).
For the molecule `CCOC(=O)CSc1nnc(-c2ccc(NS(=O)(=O)c3ccc(C)cc3)cc2)o1`, the EC50 in test [1] was > 9.62 µM. The Her2 inhibition in test [2] was 7.81% (inactive).
Take `CCOC(=O)C1C(c2ccccc2Cl)NC(=O)N(C)C1(O)C(F)(F)F` (centres undefined): the half-maximal effective concentration (EC50) in test [1] was > 9.62 µM. In test [2], the Her2 inhibition was -10.7% (inactive).
Take `Cc1ccccc1-c1nc(CN2CCC(C(=O)NCCC3=CCCCC3)CC2)c(C)o1`: the EC50 in test [1] was > 9.62 µM. Moreover, the Her2 inhibition in test [2] is -53.7% (inactive).
As for `Clc1cccc(-c2nnc(-c3ccccc3)o2)c1`, the EC50 in test [1] is < 0.024 µM. Moreover, the Her2 inhibition in test [2] is 34.8% (inactive).
`OC(CCN1CCCC1)(c1ccccc1)C1CCCCC1` (centres undefined): the EC50 in test [1] was > 9.62 µM. For the same molecule, the Her2 inhibition in test [2] is -24.9% (inactive).

As usually defined, the EC50 is the concentration needed to bring the measured effect to its halfway point. Low readings indicate higher potency in that assay, high ones lower potency in that assay.
